Results published in US20160244437A1, “SUBSTITUTED PHENYLALANINE DERIVATIVES” (BAYER PHARMA AKTIENGESELLSCHAFT, priority 2013, published 2016).
pIC50: −log10 of the molar value. Structures can show the parent of a compound that is named as a salt.

How the values were obtained:
human factor XIa = target: T1, human factor XIa (Homo sapiens, UniProt P03951); experiment: Measurement of FXIa inhibition (fluorogenic peptide substrate Boc-Glu(OBzl)-Ala-Arg-AMC); format: biochemical; conditions: factor XIa from Kordia 0.45 nM, 15 min pre-incubation, 30 min at 22° C., fluorescence
T1 construct: purchased Kordia
T1 sequence (P03951 388-625 limits assumed): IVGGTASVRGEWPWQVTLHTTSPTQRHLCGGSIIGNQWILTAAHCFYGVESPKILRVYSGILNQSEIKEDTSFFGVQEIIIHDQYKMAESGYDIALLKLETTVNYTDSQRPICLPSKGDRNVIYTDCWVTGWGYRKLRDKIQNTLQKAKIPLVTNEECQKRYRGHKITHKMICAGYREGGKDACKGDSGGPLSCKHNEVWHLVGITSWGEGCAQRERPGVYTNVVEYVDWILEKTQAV
T1 sequence (P03951 19-387 partner limits assumed): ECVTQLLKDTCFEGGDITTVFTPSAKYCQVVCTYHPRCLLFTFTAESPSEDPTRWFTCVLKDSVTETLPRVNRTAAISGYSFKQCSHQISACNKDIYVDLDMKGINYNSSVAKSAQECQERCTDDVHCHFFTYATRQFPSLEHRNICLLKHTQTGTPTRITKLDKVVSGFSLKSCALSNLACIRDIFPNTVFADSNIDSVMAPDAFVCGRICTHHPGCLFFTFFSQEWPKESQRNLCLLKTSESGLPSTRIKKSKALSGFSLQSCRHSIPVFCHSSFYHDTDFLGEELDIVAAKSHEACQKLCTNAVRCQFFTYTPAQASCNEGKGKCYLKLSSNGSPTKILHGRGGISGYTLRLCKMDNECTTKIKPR

human and animal plasma = experiment: Determination of anticoagulatory activity: activated partial thromboplastin time (aPTT) in plasma; conditions: concentration of test substance which brings about a 1.5-fold extension of the aPTT; plasma in vitro, C.K. Prest kit
Procedure: The anticoagulatory activity of the test substances is determined in vitro in human and animal plasma (for example mouse, rat, rabbit, pig and dog plasma). To this end, blood is drawn off in a mixing ratio of sodium citrate/blood of 1:9 using a 0.11 molar sodium citrate solution as receiver. Immediately after the blood has been drawn off, it is mixed thoroughly and centrifuged at about 4000 g for 15 minutes. The supernatant is pipetted off.
The activated partial thromboplastin time (aPTT) is determined in the presence of varying concentrations of test substance or the corresponding solvent using a commercial test kit (C.K. Prest from Diagnostica Stago). The test compounds are incubated with the plasma and the PTT reagent (cephalin, kaolin) at 37° C. for 3 minutes. Coagulation is then started by addition of a 25 mM aqueous calcium chloride solution, and the time when coagulation occurs is determined. The concentration of test substance which brings about a 1.5-fold extension of the aPTT is determined.

Row | Structure (SMILES) | pIC50 (human factor XIa) | aPTT (human and animal plasma)
1 | CN1CCN(c2ncc(-c3cccc(C[C@H](NC(=O)[C@H]4CC[C@H](CN)CC4)C(=O)Nc4ccc(-c5nnc(Cl)[nH]5)cc4)c3)cn2)CC1 [Example 91, N-alpha-{[trans-4-(Aminomethyl)cyclohexyl]carbonyl}-N-[4-(3-chloro-4H-1,2,4-triazol-5-yl)phenyl]-3-[2-(4-methylpiperazin-1-yl)pyrimidin-5-yl]-L-phenylalaninamide hydrochloride] | 8.46 | 0.06 µmol/L
2 | NC[C@H]1CC[C@H](C(=O)N[C@@H](Cc2cccc(-c3ccc(C(=O)N4CCN(CCO)CC4)cc3)c2)C(=O)Nc2ccc(-c3nnn[nH]3)cc2)CC1 [Example 48, trans-4-(Aminomethyl)-N-[(2S)-3-(4′-{[4-(2-hydroxyethyl)piperazin-1-yl]carbonyl}biphenyl-3-yl)-1-oxo-1-{[4-(1H-tetrazol-5-yl)phenyl]amino}propan-2-yl]cyclohexanecarboxamide hydrochloride] | 8.16 | 0.44 µmol/L
3 | Cc1ccc(S(=O)(=O)N2CCCC2)cc1-c1cccc(C[C@H](NC(=O)[C@H]2CC[C@H](CN)CC2)C(=O)Nc2ccc(-c3nnn[nH]3)cc2)c1 [Example 2, trans-4-(Aminomethyl)-N-[(2S)-3-[2′-methyl-5′-(pyrrolidin-1-ylsulphonyl)biphenyl-3-yl]-1-oxo-1-{[4-(1H-tetrazol-5-yl)phenyl]amino}propan-2-yl]cyclohexanecarboxamide hydrochloride] | 8.96 | 0.08 µmol/L
4 | Cc1ccc(S(=O)(=O)N2CCOCC2)cc1-c1cccc(C[C@H](NC(=O)[C@H]2CC[C@H](CN)CC2)C(=O)Nc2ccc(-c3n[nH]c(=O)[nH]3)cc2)c1 [Example 9, trans-4-(Aminomethyl)-N-[(2S)-3-[2′-methyl-5′-(morpholin-4-ylsulphonyl)biphenyl-3-yl]-1-oxo-1-{[4-(5-oxo-4,5-dihydro-1H-1,2,4-triazol-3-yl)phenyl]amino}propan-2-yl]cyclohexanecarboxamide hydrochloride] | 8.02 | 0.14 µmol/L
5 | Cc1ccc(C[C@H](NC(=O)[C@H]2CC[C@H](CN)CC2)C(=O)Nc2ccc(-c3nnn[nH]3)cc2)cc1-c1cccc(C(=O)NC2CCN(C(C)C)CC2)c1 [Example 19, 5′-[(2S)-2-({[trans-4-(Aminomethyl)cyclohexyl]carbonyl}amino)-3-oxo-3-{[4-(1H-tetrazol-5-yl)phenyl]amino}propyl]-2′-methyl-N-[1-(propan-2-yl)piperidin-4-yl]biphenyl-3-carboxamide hydrochloride] | 8.22 | 0.14 µmol/L
6 | Cc1cc(N)ccc1-c1cccc(C[C@H](NC(=O)[C@H]2CC[C@H](CN)CC2)C(=O)Nc2ccc(-c3nnn[nH]3)cc2)c1 [Example 97, trans-4-(Aminomethyl)-N-[(2S)-3-(4′-amino-2′-methylbiphenyl-3-yl)-1-oxo-1-{[4-(1H-tetrazol-5-yl)phenyl]amino}propan-2-yl]cyclohexanecarboxamide hydrochloride] | 8.68 | 0.12 µmol/L
7 | Cc1nc(O)ccc1-c1cccc(C[C@H](NC(=O)[C@H]2CC[C@H](CN)CC2)C(=O)Nc2ccc(-c3nnn[nH]3)cc2)c1 [Example 98, N-alpha-{[trans-4-(Aminomethyl)cyclohexyl]carbonyl)}-3-(6-hydroxy-2-methylpyridin-3-yl)-N-[4-(1H-tetrazol-5-yl)phenyl]-L-phenylalaninamide hydrochloride] | 8.27 | 0.2 µmol/L
8 | NC[C@H]1CC[C@H](C(=O)N[C@@H](Cc2cccc(-c3cnc(NC4CC4)nc3)c2)C(=O)Nc2ccc(-c3nnn[nH]3)cc2)CC1 [Example 82, N-alpha-{[trans-4-(Aminomethyl)cyclohexyl]carbonyl}-3-[2-(cyclopropylamino)pyrimidin-5-yl]-N-[4-(1H-tetrazol-5-yl)phenyl]-L-phenylalaninamide hydrochloride] | 8.47 | 0.14 µmol/L
9 | Cc1nc(N)ccc1-c1cccc(C[C@H](NC(=O)[C@H]2CC[C@H](CN)CC2)C(=O)Nc2ccc(-c3nnn[nH]3)cc2)c1 [Example 66, N-alpha-{[trans-4-(Aminomethyl)cyclohexyl]carbonyl}-3-(6-amino-2-methylpyridin-3-yl)-N-[4-(1H-tetrazol-5-yl)phenyl]-L-phenylalaninamide hydrochloride] | 8.48 | 0.12 µmol/L
10 | Cc1cc(S(=O)(=O)N(C)C)ccc1-c1cccc(C[C@H](NC(=O)[C@H]2CC[C@H](CN)CC2)C(=O)Nc2ccc(-c3nnn[nH]3)cc2)c1 [Example 7, trans-4-(Aminomethyl)-N-[(2S)-3-[4′-(dimethylsulphamoyl)-2′-methylbiphenyl-3-yl]-1-oxo-1-{[4-(1H-tetrazol-5-yl)phenyl]amino}propan-2-yl]cyclohexanecarboxamide hydrochloride] | 8.77 | 0.33 µmol/L
11 | CN(C)CCCOc1ccc(-c2cccc(C[C@H](NC(=O)[C@H]3CC[C@H](CN)CC3)C(=O)Nc3ccc(-c4nnn[nH]4)cc3)c2)cn1 [Example 59, N-alpha-{[trans-4-(Aminomethyl)cyclohexyl]carbonyl}-3-{6-[3-(dimethylamino)propoxy]pyridin-3-yl}-N-[4-(1H-tetrazol-5-yl)phenyl]-L-phenylalaninamide hydrochloride] | 8.14 | 0.19 µmol/L
12 | CN(C)CCCOc1ccc(-c2cccc(C[C@H](NC(=O)[C@H]3CC[C@H](CN)CC3)C(=O)Nc3ccc4[nH]c(=O)[nH]c4c3)c2)cn1 [Example 100, N-alpha-{[trans-4-(Aminomethyl)cyclohexyl]carbonyl}-3-{6-[3-(dimethylamino)propoxy]pyridin-3-yl}-N-(2-oxo-2,3-dihydro-1H-benzimidazol-5-yl)-L-phenylalaninamide hydrochloride] | 7.23 | 0.34 µmol/L
13 | CN(C)C(=O)c1cccc(-c2cccc(C[C@H](NC(=O)[C@H]3CC[C@H](CN)CC3)C(=O)Nc3ccc(-c4nnn[nH]4)cc3)c2)c1 [Example 43, 3′-[(2S)-2-({[trans-4-(Aminomethyl)cyclohexyl]carbonyl}amino)-3-oxo-3-{[4-(1H-tetrazol-5-yl)phenyl]amino}propyl]-N,N-dimethylbiphenyl-3-carboxamide hydrochloride] | 8.28 | 0.26 µmol/L
14 | COc1ccc(-c2cccc(C[C@H](NC(=O)[C@H]3CC[C@H](CN)CC3)C(=O)Nc3ccc(-c4nnn[nH]4)cc3)c2)cc1S(=O)(=O)N1CCOCC1 [Example 8, trans-4-(Aminomethyl)-N-[(2S)-3-[4′-methoxy-3′-(morpholin-4-ylsulphonyl)biphenyl-3-yl]-1-oxo-1-{[4-(1H-tetrazol-5-yl)phenyl]amino}propan-2-yl]cyclohexanecarboxamide hydrochloride] | 8.42 | 0.41 µmol/L
15 | NC[C@H]1CC[C@H](C(=O)N[C@@H](Cc2cccc(-c3ccccc3S(=O)(=O)N3CCOCC3)c2)C(=O)Nc2ccc(-c3nn[nH]n3)cc2)CC1 [Example 54, trans-4-(Aminomethyl)-N-[(2S)-3-[2′-(morpholin-4-ylsulphonyl)biphenyl-3-yl]-1-oxo-1-{[4-(2H-tetrazol-5-yl)phenyl]amino}propan-2-yl]cyclohexanecarboxamide hydrochloride] | 8.72 | 0.28 µmol/L
16 | CN(C)CCCOc1ccc(-c2cccc(C[C@H](NC(=O)[C@H]3CC[C@H](CN)CC3)C(=O)Nc3ccc(-c4nnc(C(F)(F)F)[nH]4)cc3)c2)cn1 [Example 101, N-alpha-{[trans-4-(Aminomethyl)cyclohexyl]carbonyl}-3-{6-[3-(dimethylamino)propoxy]pyridin-3-yl}-N-{4-[3-(trifluoromethyl)-4H-1,2,4-triazol-5-yl]phenyl}-L-phenylalaninamide hydrochloride] | 7.85 | 0.43 µmol/L
17 | Cc1ccc(N)cc1-c1cccc(C[C@H](NC(=O)[C@H]2CC[C@H](CN)CC2)C(=O)Nc2ccc(-c3nnn[nH]3)cc2)c1 [Example 103, trans-4-(Aminomethyl)-N-[(2S)-3-(5′-amino-2′-methylbiphenyl-3-yl)-1-oxo-1-{[4-(1H-tetrazol-5-yl)phenyl]amino}propan-2-yl]cyclohexanecarboxamide hydrochloride] | 8.48 | 0.1 µmol/L
18 | Cc1cc(C(=O)NC2CCC(N(C)C)CC2)ccc1-c1cccc(C[C@H](NC(=O)[C@H]2CC[C@H](CN)CC2)C(=O)Nc2ccc(-c3nnn[nH]3)c(F)c2)c1 (stereo partly drawn) [Example 64, 3′-[(2S)-2-({[trans-4-(Aminomethyl)cyclohexyl]carbonyl}amino)-3-{[3-fluoro-4-(1H-tetrazol-5-yl)phenyl]amino}-3-oxopropyl]-N-[4-(dimethylamino)cyclohexyl]-2-methylbiphenyl-4-carboxamide hydrochloride] | 8.28 | 0.12 µmol/L
19 | Cc1ccc(S(=O)(=O)N2CCCC2)cc1-c1cccc(C[C@H](NC(=O)[C@H]2CC[C@H](CN)CC2)C(=O)Nc2ccc(-c3noc(=O)[nH]3)cc2)c1 [Example 36, trans-4-(Aminomethyl)-N-[(2S)-3-[2′-methyl-5′-(pyrrolidin-1-ylsulphonyl)biphenyl-3-yl]-1-oxo-1-{[4-(5-oxo-4,5-dihydro-1,2,4-oxadiazol-3-yl)phenyl]amino}propan-2-yl]cyclohexanecarboxamide hydrochloride] | 8.66 | 0.12 µmol/L
